Values quoted from earlier work as cited in patent US20260053767A1, “Hepatoprotective Compositions And Methods” (Jemyll, Ltd., priority 2022, published 2026).

Conditions: reported: adipose tissue inflammation, insulin resistance, non-alcoholic fatty liver disease; cited from earlier work

## CCCCCCCCCCCC(=O)O [lauric acid]
  effects on the liver and other tissues: significant adverse effects on the liver and other tissues
